From patent US11274332B2, “Methods of administering 3,4-diaminopyridine” (SERB SA, priority 2011, dated 2022)
Like-named read-outs stand apart in the source and are kept apart here.

Experiment: Example 18 Part 2: multiple dose PK (20 mg QID) of 3,4-DAP and 3-N-acetyl metabolite in slow and fast acetylators
Assay type: in vivo, human
Conditions: for AUC(0-t) / Cmax / Tmax / Vd/F / half-life: both sexes, human, plasma, oral, 20 mg; for Tmax: read-out: Mean Tmax; for Vd/F: read-out: Mean Vz/F; for half-life: read-out: Mean t1/2 (converted)
Protocol: The following method was used to analyze concentrations of 3,4-diaminopyridine and N-(4-aminopyridin-3-yl)acetamide in plasma and urine samples for the experiments in Example 18. In the LC/MS/MS method, the human plasma and urine samples were extracted using acetonitrile containing 0.1% formic acid. Samples were analyzed by using HPLC with positive ion electrospray MS/MS detection. The column was an Atlantis HILIC Silica column (3 μm, 3×50 mm) at a temperature of 40° C. Mobile phase A was water containing ammonium formate (20 mM) and 0.1% formic acid. Mobile phase B was acetonitrile/isopropanol (90/10; v/v) containing 0.1% formic acid. The flow rate was 0.90 mL/minute. The gradient conditions for human plasma and urine samples were as follows:
The LC/MS/MS method was validated to quantify 3,4-DAP in human plasma in the linear calibration range of 0.500 to 500 ng/mL and from 1.00 to 1000 ng/mL for the 3-N-acetyl metabolite.
The primary objective of the study was to assess the safety and tolerability of 3,4-DAP phosphate after single and multiple doses. The secondary objectives of the study were • Part 1 only: To determine the dose-related PK profile of amifampridine and of 3-N-acetyl amifampridine after single, escalating doses of 3,4-DAP phosphate • Part 2 only: To assess the steady-state plasma PK and accumulation of amifampridine and of 3-N-acetyl amifampridine over multiple days of dosing with 3,4-DAP phosphate An exploratory objective was to examine the overall activity of the N-acetyl transferase enzymes on the metabolism of amifampridine by assessing the PK of amifampridine and 3-N-acetyl amifampridine with phenotypic acetylation activity and genotyping determination of NAT2 gene polymorphisms. Study Design and Plan
This open-label study in healthy subjects (male and female) was conducted in 2 parts. A total of 26 healthy male and female subjects, 12 in Part 1 (at least 5 of each sex), 4 in Part 2 Group 1, and 10 in Part 2 Group 2 (at least 4 of each sex) were enrolled into the study. The same subjects were not enrolled to participate in both parts. Subjects in Part 2 were dosed only after all subjects of Part 1 completed dosing and at least 24-hours of follow-up safety evaluation after the last dose were completed.
All subjects were characterized for their metabolic acetylation phenotype and NAT2 genotype in order to divide subjects into two groups of acetylators. Volunteers were genetically typed for highly variant alleles of the N-acetyl transferase 2 enzyme (NAT2) domain on chromosome 8 (according to Example 16) and were phenotyped for acetylation rates with a caffeine challenge test (according to Example 15a). Approximately equal numbers of slow and fast acetylators (as defined by a caffeine challenge test in Example 15a) were enrolled in each group. In Part 2, very slow acetylators with NAT2 activity (ratio 1, Example 15a) below 0.06 were excluded from participation in the study. In each part of the study, subjects were assessed for PK, safety, and tolerability and all doses were administered within 30 min of ingestion of a meal or a snack.
Part 2, Group 1: Four sentinel subjects were selected after determining their acetylator status. Two were fast acetylators and two were slow acetylators. All four were dosed on Day 1 with 4 oral doses of 20 mg of 34-DAP phosphate (given at 4-hour dosing intervals). On Days […] and 2, safety and tolerability data was collected. Subjects left the clinic on Day 2. The safety and tolerability data collected for these 4 sentinel subjects were reviewed. The safety and tolerability results of Days 1 and 2 for these subjects were acceptable and thus Part 2 Group 2 was commenced. Minimally acceptable safety was defined as the absence of clinical seizure activity. Subjects in Group 1 returned to the clinic for their follow-up assessments 2-4 days following their last dose.
Each subject was given a final morning dose of 20 mg 3,4-DAP phosphate on Day 4. […]

[1] = Day 1, Dose 1, fast acetylators, 20 mg QID
[2] = Day 1, Dose 1, slow acetylators, 20 mg QID
[3] = Day 1, Dose 2, fast acetylators, 20 mg QID
[4] = Day 1, Dose 2, slow acetylators, 20 mg QID
[5] = Day 1, Dose 3, fast acetylators, 20 mg QID
[6] = Day 1, Dose 3, slow acetylators, 20 mg QID
[7] = Day 1, Dose 4, fast acetylators, 20 mg QID
[8] = Day 1, Dose 4, slow acetylators, 20 mg QID
[9] = Day 3, Dose 1, fast acetylators, 20 mg QID
[10] = Day 3, Dose 1, slow acetylators, 20 mg QID
[11] = Day 3, Dose 2, fast acetylators, 20 mg QID
[12] = Day 3, Dose 2, slow acetylators, 20 mg QID
[13] = Day 3, Dose 3, fast acetylators, 20 mg QID
[14] = Day 3, Dose 3, slow acetylators, 20 mg QID
[15] = Day 3, Dose 4, fast acetylators, 20 mg QID
[16] = Day 3, Dose 4, slow acetylators, 20 mg QID
[17] = Day 4, 20 mg single dose, fast acetylators
[18] = Day 4, 20 mg single dose, slow acetylators

Compound: Nc1ccncc1N [3,4-DAP, 3,4-diaminopyridine]
- Mean CL/F [1]: 898 L/h
- Mean CL/F [2]: 152 L/h
- Mean CL/F [3]: 757 L/h
- Mean CL/F [4]: 107 L/h
- Mean CL/F [5]: 879 L/h
- Mean CL/F [6]: 117 L/h
- Mean CL/F [7]: 885 L/h
- Mean CL/F [8]: 101 L/h
- Mean CL/F [9]: 973 L/h
- Mean CL/F [10]: 124 L/h
- Mean CL/F [11]: 607 L/h
- Mean CL/F [12]: 92.9 L/h
- Mean CL/F [13]: 817 L/h
- Mean CL/F [14]: 103 L/h
- Mean CL/F [15]: 795 L/h
- Mean CL/F [16]: 73.2 L/h
- Mean CL/F [17]: 673 L/h
- Mean CL/F [18]: 108 L/h
- AUC(0-t) (Day 1, Dose 1, fast acetylators, 20 mg QID, read-out: Mean AUC0-4): 0.0235 µg·h/mL
- Cmax (Day 1, Dose 1, fast acetylators, 20 mg QID, read-out: Mean Cmax): 0.0244 µg/mL
- Tmax [1]: 0.809 h
- Vd/F [1]: 1330 L
- half-life [1]: 1.12 h
- AUC(0-t) (Day 1, Dose 1, slow acetylators, 20 mg QID, read-out: Mean AUC0-4): 0.115 µg·h/mL
- Cmax (Day 1, Dose 1, slow acetylators, 20 mg QID, read-out: Mean Cmax): 0.0748 µg/mL
- Tmax [2]: 1.12 h
- Vd/F [2]: 299 L
- half-life [2]: 1.39 h
- AUC(0-t) (Day 1, Dose 1-4, fast acetylators, 20 mg QID, read-out: Mean AUC0-24): 0.0979 µg·h/mL
- AUC(0-t) (Day 1, Dose 1-4, slow acetylators, 20 mg QID, read-out: Mean AUC0-24): 0.63 µg·h/mL
- AUC(0-t) (Day 1, Dose 2, fast acetylators, 20 mg QID, read-out: Mean AUC0-4): 0.0225 µg·h/mL
- Cmax (Day 1, Dose 2, fast acetylators, 20 mg QID, read-out: Mean Cmax): 0.0133 µg/mL
- Tmax [3]: 1.07 h
- Vd/F [3]: 1340 L
- half-life [3]: 1.31 h
- AUC(0-t) (Day 1, Dose 2, slow acetylators, 20 mg QID, read-out: Mean AUC0-4): 0.152 µg·h/mL
- Cmax (Day 1, Dose 2, slow acetylators, 20 mg QID, read-out: Mean Cmax): 0.0837 µg/mL
- Tmax [4]: 1.14 h
- Vd/F [4]: 293 L
- half-life [4]: 1.93 h
- AUC(0-t) (Day 1, Dose 3, fast acetylators, 20 mg QID, read-out: Mean AUC0-4): 0.0241 µg·h/mL
- Cmax (Day 1, Dose 3, fast acetylators, 20 mg QID, read-out: Mean Cmax): 0.0168 µg/mL
- Tmax [5]: 0.583 h
- Vd/F [5]: 1720 L
- half-life [5]: 1.3 h
- AUC(0-t) (Day 1, Dose 3, slow acetylators, 20 mg QID, read-out: Mean AUC0-4): 0.14 µg·h/mL
- Cmax (Day 1, Dose 3, slow acetylators, 20 mg QID, read-out: Mean Cmax): 0.0722 µg/mL
- Tmax [6]: 0.857 h
- Vd/F [6]: 269 L
- half-life [6]: 1.59 h
- AUC(0-t) (Day 1, Dose 4, fast acetylators, 20 mg QID, read-out: Mean AUC0-4): 0.0237 µg·h/mL
- Cmax (Day 1, Dose 4, fast acetylators, 20 mg QID, read-out: Mean Cmax): 0.0164 µg/mL
- Tmax [7]: 0.643 h
- Vd/F [7]: 1730 L
- half-life [7]: 1.49 h
- AUC(0-t) (Day 1, Dose 4, slow acetylators, 20 mg QID, read-out: Mean AUC0-4): 0.145 µg·h/mL
- Cmax (Day 1, Dose 4, slow acetylators, 20 mg QID, read-out: Mean Cmax): 0.0671 µg/mL
- Tmax [8]: 1.29 h
- Vd/F [8]: 338 L
- half-life [8]: 2.52 h
- AUC(0-t) (Day 3, Dose 1, fast acetylators, 20 mg QID, read-out: Mean AUC0-4): 0.0249 µg·h/mL
- Cmax (Day 3, Dose 1, fast acetylators, 20 mg QID, read-out: Mean Cmax): 0.024 µg/mL
- Tmax [9]: 0.8 h
- Vd/F [9]: 1390 L
- half-life [9]: 1.07 h
- AUC(0-t) (Day 3, Dose 1, slow acetylators, 20 mg QID, read-out: Mean AUC0-4): 0.13 µg·h/mL
- Cmax (Day 3, Dose 1, slow acetylators, 20 mg QID, read-out: Mean Cmax): 0.0812 µg/mL
- Tmax [10]: 1 h
- Vd/F [10]: 283 L
- half-life [10]: 1.6 h
- AUC(0-t) (Day 3, Dose 1-4, fast acetylators, 20 mg QID, read-out: Mean AUC0-24): 0.111 µg·h/mL
- AUC(0-t) (Day 3, Dose 1-4, slow acetylators, 20 mg QID, read-out: Mean AUC0-24): 0.701 µg·h/mL
- AUC(0-t) (Day 3, Dose 2, fast acetylators, 20 mg QID, read-out: Mean AUC0-4): 0.0285 µg·h/mL
- Cmax (Day 3, Dose 2, fast acetylators, 20 mg QID, read-out: Mean Cmax): 0.0187 µg/mL
- Tmax [11]: 0.9 h
- Vd/F [11]: 1110 L
- half-life [11]: 1.34 h
- AUC(0-t) (Day 3, Dose 2, slow acetylators, 20 mg QID, read-out: Mean AUC0-4): 0.164 µg·h/mL
- Cmax (Day 3, Dose 2, slow acetylators, 20 mg QID, read-out: Mean Cmax): 0.0961 µg/mL
- Tmax [12]: 1 h
- Vd/F [12]: 260 L
- half-life [12]: 1.97 h
- AUC(0-t) (Day 3, Dose 3, fast acetylators, 20 mg QID, read-out: Mean AUC0-4): 0.0258 µg·h/mL
- Cmax (Day 3, Dose 3, fast acetylators, 20 mg QID, read-out: Mean Cmax): 0.0219 µg/mL
- Tmax [13]: 0.532 h
- Vd/F [13]: 2200 L
- half-life [13]: 1.73 h
- AUC(0-t) (Day 3, Dose 3, slow acetylators, 20 mg QID, read-out: Mean AUC0-4): 0.156 µg·h/mL
- Cmax (Day 3, Dose 3, slow acetylators, 20 mg QID, read-out: Mean Cmax): 0.0809 µg/mL
- Tmax [14]: 0.8 h
- Vd/F [14]: 241 L
- half-life [14]: 1.63 h
- AUC(0-t) (Day 3, Dose 4, fast acetylators, 20 mg QID, read-out: Mean AUC0-4): 0.0251 µg·h/mL
- Cmax (Day 3, Dose 4, fast acetylators, 20 mg QID, read-out: Mean Cmax): 0.0162 µg/mL
- Tmax [15]: 0.8 h
- Vd/F [15]: 1870 L
- half-life [15]: 1.82 h
- AUC(0-t) (Day 3, Dose 4, slow acetylators, 20 mg QID, read-out: Mean AUC0-4): 0.168 µg·h/mL
- Cmax (Day 3, Dose 4, slow acetylators, 20 mg QID, read-out: Mean Cmax): 0.0971 µg/mL
- Tmax [16]: 0.6 h
- Vd/F [16]: 376 L
- half-life [16]: 3.56 h
- AUC(0-t) (Day 4, 20 mg single dose, fast acetylators, read-out: Mean AUC0-4): 0.0226 µg·h/mL
- AUC(0-t) (Day 4, 20 mg single dose, fast acetylators, read-out: Mean AUC0-24): 0.0259 µg·h/mL
- Cmax (Day 4, 20 mg single dose, fast acetylators, read-out: Mean Cmax): 0.0136 µg/mL
- Tmax [17]: 0.9 h
- Vd/F [17]: 1770 L
- half-life [17]: 1.95 h
- AUC(0-t) (Day 4, 20 mg single dose, slow acetylators, read-out: Mean AUC0-4): 0.133 µg·h/mL
- AUC(0-t) (Day 4, 20 mg single dose, slow acetylators, read-out: Mean AUC0-24): 0.186 µg·h/mL
- Cmax (Day 4, 20 mg single dose, slow acetylators, read-out: Mean Cmax): 0.0725 µg/mL
- Tmax [18]: 1.2 h
- Vd/F [18]: 486 L
- half-life [18]: 3.24 h
- Cmax (Days 1-4, 20 mg QID, fast acetylators, read-out: plasma mean Cmax values, range): 0.0133 to 0.0244 µg/mL
- Cmax (Days 1-4, 20 mg QID, slow acetylators, read-out: plasma mean Cmax values, range): 0.0671 to 0.0971 µg/mL
